Data on six compounds can be found in ChEMBL document CHEMBL3856187, “Cyclin Dependent Kinase 9 Inhibitors for Cancer Therapy” (J Med Chem, 2016).

For data set [1], the target named is CDK9/cyclin T1 (Homo sapiens, UniProt P50750). Put plainly: Inhibition of recombinant human His-tagged CDK9/cyclin T1 expressed in baculovirus infected sf9 cells using (biotinyl-Ahx-(Tyr-Ser-ProThr-Ser-Pro-Ser)4-NH2 as substrate after 45 mins by [gamma-32P]ATP based microbeta scintillation counting analysis.
Data set [2] can be described thus: Cytotoxicity against human HeLa cells assessed as decrease in cell viability after 72 hrs by MTT assay. Format: toxicity, cell-based.
Data set [3] concerns Homo sapiens. Put plainly: Anticancer activity in human AML patient assessed as improvement in remission rate at 50 mg/m2, iv for 1 to 3 days followed by cytarabine dose at 667 mg/m2/day as 72 hrs continuous infusion for 6 to 8 days and mitoxantrone at 40 mg/m2 administered on day 9. Format: functional.
Data set [4] has as its target T1, Cyclin-dependent kinase 2/cyclin E1 (Homo sapiens, UniProt P24941). The data set can be described thus: Inhibition of human recombinant GST-tagged CDK2/cyclin E expressed in Sf9 insect cells using biotin-Ttds-YISPLKSPYKISEG as substrate preincubated for 15 mins followed by substrate addition measured after 25 mins by TR-FRET assay.
Data set [5] in a line: Antiproliferative activity against human HeLa cells after 4 days by crystal violet staining based assay. It counts as functional, cell-based. The note with it: 96 h.
Data set [6] can be described thus: Antiproliferative activity against human H460 cells after 4 days by crystal violet staining based assay. The note with it: NCI-H460, 96 h. Format: functional, cell-based.
The nature of data set [7]: Antiproliferative activity against human DU145 cells after 4 days by crystal violet staining based assay. It counts as functional, cell-based. The note with it: DU-145, 96 h.
The nature of data set [8]: Antiproliferative activity against human Caco2 cells after 4 days by crystal violet staining based assay. It counts as functional, cell-based. The note with it: Caco-2, 96 h.
A short description of data set [9]: Antiproliferative activity against mouse B16F10 cells after 4 days by crystal violet staining based assay. It counts as functional, cell-based. Conditions: B16-F10, 96 h.
Data set [10] in a line: Antiproliferative activity against human HeLa/MaTu/ADR cells after 4 days by crystal violet staining based assay. It counts as functional, cell-based. Conditions: 96 h.
Data set [11] deals with Cyclin-dependent kinase 1/cyclin B1 (Homo sapiens, UniProt P06493). It counts as protein-complex assay.
Description: Inhibition of CDK1/cyclin B (unknown origin)
The target of data set [12] is T2, CDK2/Cyclin A2 (Homo sapiens, UniProt P24941). Put plainly: Inhibition of recombinant human N-terminal GST-tagged CDK2/cyclin A expressed in baculovirus expression system using retinoblastoma (792 to 928 residues) as substrate after 30 mins by gamma32P-ATP based scintillation counting analysis.
The target of data set [13] is T1, Cyclin-dependent kinase 2/cyclin E1. Put plainly: Inhibition of human CDK2/cyclin E expressed in baculovirus infected Sf9 insect cells using retinoblastoma (792 to 928 residues) as substrate after 30 mins by gamma32P-ATP based scintillation counting analysis.
Data set [14] has as its target Cyclin-dependent kinase 4/cyclin D1 (Homo sapiens, UniProt P11802). Put plainly: Inhibition of human N-terminal GST-tagged CDK4/cyclin D1 expressed in baculovirus infected Sf9 insect cells using retinoblastoma (792 to 928 residues) as substrate after 30 mins by gamma32P-ATP based scintillation counting analysis.
A short description of data set [15]: Inhibition of CDK6/cyclin D (unknown origin). Further details: species or system Homo sapiens.
Data set [16] concerns the target CDK7/Cyclin H/MNAT1 (Homo sapiens, UniProt P50613). Put plainly: Inhibition of CDK7/cyclin H/MAT1 (unknown origin). It counts as protein-complex assay.
Data set [17] has as its target Cyclin-dependent kinase 1 (Homo sapiens, UniProt P06493). Put plainly: Inhibition of CDK1 (unknown origin).
Data set [18] addresses Cyclin-dependent kinase 5 (Homo sapiens, UniProt Q00535). The data set can be described thus: Inhibition of CDK5 (unknown origin).
Data set [19] deals with Cyclin-dependent kinase 9 (Homo sapiens, UniProt P50750). The data set can be described thus: Inhibition of human CDK9 (unknown origin).
For data set [20], the target named is Cyclin-dependent kinase 2 (Homo sapiens, UniProt P24941). Put plainly: Binding affinity to full length human CDK2 (1 to 298 residues) expressed in bacterial expression system by KINOMEscan competition assay.
Data set [21] deals with Cyclin-dependent kinase 3 (Homo sapiens, UniProt Q00526). Put plainly: Inhibition of CDK3 (unknown origin).
The target of data set [22] is Cyclin-dependent kinase 4 (Homo sapiens, UniProt P11802). Put plainly: Inhibition of CDK4 (unknown origin).
Data set [23] concerns the target T2, CDK2/Cyclin A2. Put plainly: Inhibition of CDK2/cyclin A (unknown origin). It counts as protein-complex assay.
Data set [24] has as its target Cyclin-dependent kinase 4/G1/S-specific cyclin-E1 (Homo sapiens, UniProt P11802). Put plainly: Inhibition of CDK4/cyclin E (unknown origin). It counts as protein-complex assay.
Data set [25] concerns the target Cyclin-dependent kinase 5/CDK5 activator 1 (Homo sapiens, UniProt Q00535). The data set can be described thus: Inhibition of CDK5/p25 (unknown origin). Format: protein-complex assay.
Data set [26] addresses Cyclin-dependent kinase 7/ cyclin H (Homo sapiens, UniProt P50613). The data set can be described thus: Inhibition of CDK7/cyclin H (unknown origin). Format: protein-complex assay.

Chain of Cyclin-dependent kinase 1/cyclin B1 (P06493 whole entry, the tested form may be a part): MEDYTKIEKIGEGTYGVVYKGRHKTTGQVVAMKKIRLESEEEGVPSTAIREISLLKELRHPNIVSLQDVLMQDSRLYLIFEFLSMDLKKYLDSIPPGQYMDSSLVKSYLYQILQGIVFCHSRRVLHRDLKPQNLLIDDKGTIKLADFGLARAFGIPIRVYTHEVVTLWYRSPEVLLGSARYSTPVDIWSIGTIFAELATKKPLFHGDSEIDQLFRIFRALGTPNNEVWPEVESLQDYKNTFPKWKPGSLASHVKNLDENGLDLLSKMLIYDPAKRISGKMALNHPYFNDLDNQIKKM
Chain of Cyclin-dependent kinase 1/cyclin B1 (P14635 whole entry, further chain, the tested form may be a part): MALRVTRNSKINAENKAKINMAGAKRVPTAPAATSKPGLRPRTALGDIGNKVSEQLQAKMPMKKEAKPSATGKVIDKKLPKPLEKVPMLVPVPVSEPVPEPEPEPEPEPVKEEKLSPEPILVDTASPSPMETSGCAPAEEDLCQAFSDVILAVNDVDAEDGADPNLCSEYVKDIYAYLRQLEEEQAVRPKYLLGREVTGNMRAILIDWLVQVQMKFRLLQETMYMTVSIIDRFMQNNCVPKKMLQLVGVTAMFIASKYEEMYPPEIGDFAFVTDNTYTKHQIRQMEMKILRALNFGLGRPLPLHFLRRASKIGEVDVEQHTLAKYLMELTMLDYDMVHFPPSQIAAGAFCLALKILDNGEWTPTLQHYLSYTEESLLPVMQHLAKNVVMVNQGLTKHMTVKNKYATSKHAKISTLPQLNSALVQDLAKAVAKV
Chain of Cyclin-dependent kinase 7/ cyclin H (P51946 whole entry): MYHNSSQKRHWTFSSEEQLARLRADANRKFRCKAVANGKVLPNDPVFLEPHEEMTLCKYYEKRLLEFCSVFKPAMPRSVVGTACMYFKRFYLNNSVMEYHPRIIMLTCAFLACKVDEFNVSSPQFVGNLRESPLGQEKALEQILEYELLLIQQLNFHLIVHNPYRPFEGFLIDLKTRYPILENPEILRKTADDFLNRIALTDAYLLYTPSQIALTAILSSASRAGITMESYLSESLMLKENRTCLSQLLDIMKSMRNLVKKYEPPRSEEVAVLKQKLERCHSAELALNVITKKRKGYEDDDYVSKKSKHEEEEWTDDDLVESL
Chain of Cyclin-dependent kinase 7/ cyclin H (P50613 whole entry): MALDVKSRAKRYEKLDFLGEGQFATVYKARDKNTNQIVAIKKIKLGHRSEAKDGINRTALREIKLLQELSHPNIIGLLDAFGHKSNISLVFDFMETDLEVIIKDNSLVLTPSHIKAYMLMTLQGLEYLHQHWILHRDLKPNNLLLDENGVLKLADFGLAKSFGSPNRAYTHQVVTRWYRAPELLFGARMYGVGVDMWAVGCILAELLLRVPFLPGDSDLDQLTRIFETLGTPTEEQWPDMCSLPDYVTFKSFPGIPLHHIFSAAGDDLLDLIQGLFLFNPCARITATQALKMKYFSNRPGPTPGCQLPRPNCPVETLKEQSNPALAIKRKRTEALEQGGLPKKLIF
Chain of CDK7/Cyclin H/MNAT1 (P51946 whole entry): as the sequence (P51946 whole entry) above
Chain of CDK7/Cyclin H/MNAT1 (P50613 whole entry): as the sequence (P50613 whole entry) above
Chain of CDK7/Cyclin H/MNAT1 (P51948 whole entry, further chain): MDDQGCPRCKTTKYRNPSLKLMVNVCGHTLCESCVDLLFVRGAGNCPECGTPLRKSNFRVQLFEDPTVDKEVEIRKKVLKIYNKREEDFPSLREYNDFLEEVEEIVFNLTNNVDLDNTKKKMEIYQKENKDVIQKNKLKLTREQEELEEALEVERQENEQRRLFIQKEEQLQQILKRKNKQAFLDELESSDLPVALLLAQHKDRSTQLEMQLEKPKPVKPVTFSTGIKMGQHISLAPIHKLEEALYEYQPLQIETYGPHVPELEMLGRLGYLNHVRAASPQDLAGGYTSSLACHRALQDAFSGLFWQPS
Chain of Cyclin-dependent kinase 9 (P50750 whole entry, the tested form may be a part): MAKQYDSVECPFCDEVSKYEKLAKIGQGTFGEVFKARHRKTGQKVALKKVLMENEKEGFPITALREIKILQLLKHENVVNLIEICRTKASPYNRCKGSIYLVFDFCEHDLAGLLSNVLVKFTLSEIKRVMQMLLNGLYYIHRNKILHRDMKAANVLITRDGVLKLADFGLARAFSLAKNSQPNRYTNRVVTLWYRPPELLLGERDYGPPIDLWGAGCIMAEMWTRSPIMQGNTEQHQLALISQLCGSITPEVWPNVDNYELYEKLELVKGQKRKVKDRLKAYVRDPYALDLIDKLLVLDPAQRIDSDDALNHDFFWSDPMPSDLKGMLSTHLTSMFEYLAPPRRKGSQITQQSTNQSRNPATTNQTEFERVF
Chain of Cyclin-dependent kinase 3 (Q00526 whole entry): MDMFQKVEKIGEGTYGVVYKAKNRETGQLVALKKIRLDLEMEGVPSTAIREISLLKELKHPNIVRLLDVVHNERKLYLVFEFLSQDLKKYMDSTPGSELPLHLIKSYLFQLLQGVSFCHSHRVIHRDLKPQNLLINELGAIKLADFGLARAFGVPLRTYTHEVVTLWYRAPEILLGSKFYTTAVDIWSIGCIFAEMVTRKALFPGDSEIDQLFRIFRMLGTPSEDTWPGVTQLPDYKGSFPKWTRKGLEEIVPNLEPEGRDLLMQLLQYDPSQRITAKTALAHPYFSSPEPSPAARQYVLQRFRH
Chain of Cyclin-dependent kinase 4/G1/S-specific cyclin-E1 (P11802 whole entry): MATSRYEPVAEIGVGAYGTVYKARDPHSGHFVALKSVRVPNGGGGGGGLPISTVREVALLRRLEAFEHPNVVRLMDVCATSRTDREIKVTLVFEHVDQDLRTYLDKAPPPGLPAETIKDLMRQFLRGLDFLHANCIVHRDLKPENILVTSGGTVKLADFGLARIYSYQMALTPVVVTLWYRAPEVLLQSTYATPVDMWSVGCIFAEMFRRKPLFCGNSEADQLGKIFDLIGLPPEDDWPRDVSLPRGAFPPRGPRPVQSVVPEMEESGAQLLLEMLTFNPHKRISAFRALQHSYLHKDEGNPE
Chain of Cyclin-dependent kinase 4/G1/S-specific cyclin-E1 (P24864 whole entry, further chain): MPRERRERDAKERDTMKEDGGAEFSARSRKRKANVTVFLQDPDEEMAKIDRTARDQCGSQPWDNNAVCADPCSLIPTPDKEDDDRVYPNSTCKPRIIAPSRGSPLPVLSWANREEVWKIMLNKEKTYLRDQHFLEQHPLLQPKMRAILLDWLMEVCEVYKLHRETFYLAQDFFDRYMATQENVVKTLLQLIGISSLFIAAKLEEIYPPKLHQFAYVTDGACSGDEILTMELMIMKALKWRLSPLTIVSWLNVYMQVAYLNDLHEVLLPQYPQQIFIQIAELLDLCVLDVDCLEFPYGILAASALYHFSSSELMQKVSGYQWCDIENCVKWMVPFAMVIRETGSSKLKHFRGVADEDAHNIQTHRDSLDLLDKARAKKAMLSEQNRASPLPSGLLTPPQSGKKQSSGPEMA
Chain of Cyclin-dependent kinase 4 (P11802 whole entry): as the sequence (P11802 whole entry) above
Chain of Cyclin-dependent kinase 4/cyclin D1 (P11802 whole entry, the tested form may be a part): as the sequence (P11802 whole entry) above
Chain of Cyclin-dependent kinase 4/cyclin D1 (P24385 whole entry, further chain, the tested form may be a part): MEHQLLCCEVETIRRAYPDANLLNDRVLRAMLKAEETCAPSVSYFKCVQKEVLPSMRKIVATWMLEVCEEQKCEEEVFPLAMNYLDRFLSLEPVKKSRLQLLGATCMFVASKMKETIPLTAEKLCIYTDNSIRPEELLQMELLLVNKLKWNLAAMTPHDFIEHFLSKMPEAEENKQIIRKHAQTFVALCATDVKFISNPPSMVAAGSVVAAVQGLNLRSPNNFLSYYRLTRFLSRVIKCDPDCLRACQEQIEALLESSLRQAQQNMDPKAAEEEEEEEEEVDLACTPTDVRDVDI
Chain of Cyclin-dependent kinase 5/CDK5 activator 1 (Q00535 whole entry): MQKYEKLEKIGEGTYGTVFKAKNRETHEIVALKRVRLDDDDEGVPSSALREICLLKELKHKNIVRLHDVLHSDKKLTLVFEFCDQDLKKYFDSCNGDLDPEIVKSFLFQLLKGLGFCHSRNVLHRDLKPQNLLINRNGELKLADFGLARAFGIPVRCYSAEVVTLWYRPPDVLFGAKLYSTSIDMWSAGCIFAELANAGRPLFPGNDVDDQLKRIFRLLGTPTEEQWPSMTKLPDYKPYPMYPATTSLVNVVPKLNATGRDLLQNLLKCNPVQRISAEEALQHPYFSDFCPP
Chain of Cyclin-dependent kinase 5/CDK5 activator 1 (Q15078 whole entry, further chain): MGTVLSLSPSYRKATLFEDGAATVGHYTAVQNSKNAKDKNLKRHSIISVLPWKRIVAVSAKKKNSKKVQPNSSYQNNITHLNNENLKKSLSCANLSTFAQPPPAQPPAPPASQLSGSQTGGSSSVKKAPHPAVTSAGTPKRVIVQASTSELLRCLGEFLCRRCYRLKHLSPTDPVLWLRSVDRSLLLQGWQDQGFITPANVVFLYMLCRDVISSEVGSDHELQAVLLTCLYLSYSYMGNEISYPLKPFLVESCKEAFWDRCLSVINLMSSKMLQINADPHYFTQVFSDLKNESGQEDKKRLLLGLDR
Chain of Cyclin-dependent kinase 5 (Q00535 whole entry): as the sequence (Q00535 whole entry) above
Chain of Cyclin-dependent kinase 1 (P06493 whole entry): as the sequence (P06493 whole entry, the tested form may be a part) above

Take `Cc1c(-c2ccnc(Nc3ccc(N4CCNCC4)cc3)n2)sc(=O)n1C`: the Ki in [1] worked out at 0.4 nM.
Take `CN1CC[C@H](c2c(O)cc(O)c3c(=O)cc(-c4ccccc4Cl)oc23)[C@H](O)C1` [ALVOCIDIB]: in [2], the CC50 at 72 h turned out to be 120 nM. Moreover, in data set [3], the Activity is on record as 67 - 80%.
For `CS(=N)(=O)Cc1cccc(Nc2ncnc(-c3ccc(F)cc3OCc3cccc(F)c3)n2)c1` (configuration not stated), the IC50 is 260 nM in data set [4]; 170 nM in [5]; 110 nM in [6]; 110 nM in data set [7]; 80 nM in data set [8]; 100 nM in data set [9]. This compound also came in with an IC50 in data set [10] of 100 nM.
On to `CN1CC[C@@H](c2c(O)cc(O)c3c(=O)cc(-c4ccccc4Cl)oc23)[C@@H]1CO`, for which the IC50 in data set [11] stood at 79 nM; in data set [12], 224 nM; in [13], 2540 nM; in [14] it was 63 nM; in data set [15], 396 nM; in [16], 2870 nM.
As to `COc1ccccc1-c1cc(Nc2ccc(F)c(NS(C)(=O)=O)c2)ncn1`, the Ki in [17] was greater than 1000 nM; in data set [18], greater than 1000 nM; in data set [19], 17 nM; in data set [20], greater than 1000 nM; in [21], greater than 1000 nM; in data set [22] it was greater than 1000 nM.
Turning to `CC[C@H](Nc1nc(NCc2cnc(C)cc2C)c2ncn(C(C)C)c2n1)[C@@H](C)O` [CYC-065], the IC50 in [11] came to 578 nM; in data set [23], 5 nM; in data set [24], 232 nM; in [25] it was 21 nM; in [26], 193 nM.
